Test results reported in ChEMBL document CHEMBL4219217, “Structure-activity relationship study of a series of caspase inhibitors containing γ-amino acid moiety for treatment of cholestatic liver disease” (Bioorg Med Chem Lett, 2018).
pIC50: −log10 of the molar value. Activity calls are given as the source filed them. The calls are words filed in the database; no cut-off is given here.

How the values were obtained:
[1] = Stability in rat plasma assessed as compound remaining level at 100 uM incubated for 2 hrs by LC-MS/MS method; type: ADME, cell-free; conditions: for Stability: 2 h, 100 µM; for remaining at 2 h, 100 µM: read-out: Stability
[2] = Stability in mouse plasma assessed as compound remaining level at 100 uM incubated for 2 hrs by LC-MS/MS method; type: ADME, cell-free
[3] = tested on: Mus musculus; experiment: (§1) AUC (0 to infinity) in C57BL/6J mouse at 10 mg/kg, po after 0.25 to 24 hrs by LC-MS/MS method; type: ADME, organism-based; set-up: dose 10 mg/kg, time infinity, route oral; conditions: in vivo
[4] = AUC in C57BL/6J mouse liver at 1 mg/kg, po after 0.5 to 6 hrs by LC-MS/MS method; type: ADME, organism-based; set-up: time lower 0.5 hr, dose 1 mg/kg, time upper 6 hr, route oral; conditions: in vivo
[5] = Cmax in C57BL/6J mouse at 10 mg/kg, po after 0.25 to 24 hrs by LC-MS/MS method; type: ADME, organism-based; set-up: dose 10 mg/kg, route oral; conditions: in vivo
[6] = molecular target: T1, Caspase-3 (Homo sapiens, UniProt P42574); experiment: Inhibition of Anti-Fas antibody-induced caspase-3 activity in human Jurkat E6-1 cells using Ac-DEVD-AMC substrate by fluorescence based assay; type: cell-based
T1 sequence (P42574 whole entry): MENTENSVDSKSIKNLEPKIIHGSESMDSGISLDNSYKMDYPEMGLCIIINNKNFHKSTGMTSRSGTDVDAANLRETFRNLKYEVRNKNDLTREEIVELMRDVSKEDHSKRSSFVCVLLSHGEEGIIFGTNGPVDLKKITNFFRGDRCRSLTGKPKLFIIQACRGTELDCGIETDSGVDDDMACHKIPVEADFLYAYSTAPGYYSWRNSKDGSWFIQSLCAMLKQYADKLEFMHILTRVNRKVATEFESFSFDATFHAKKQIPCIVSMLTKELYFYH

[7] = tested on: Mus musculus; experiment: AUC (0 to infinity) in C57BL/6J mouse at 1 mg/kg, iv after 0.25 to 24 hrs by LC-MS/MS method; type: ADME, organism-based; set-up: dose 1 mg/kg, time infinity, route intravenous; conditions: in vivo
[8] = tested on: Rattus norvegicus; experiment: Reduction in serum indirect bilirubin level in Sprague-Dawley rat model of alpha-naphthylisothiocyanate-induced cholestatic liver disease at 6 mg/kg administered intragastrically once daily for 1 week; type: functional, organism-based
[9] = tested on: Rattus norvegicus; experiment: Reduction in serum total bilirubin level in Sprague-Dawley rat model of alpha-naphthylisothiocyanate-induced cholestatic liver disease at 6 mg/kg administered intragastrically once daily for 1 week; type: functional, organism-based
[10] = tested on: Rattus norvegicus; experiment: Reduction in serum direct bilirubin level in Sprague-Dawley rat model of alpha-naphthylisothiocyanate-induced cholestatic liver disease at 6 mg/kg administered intragastrically once daily for 1 week; type: functional, organism-based
[11] = as §1; type: ADME, organism-based; set-up: dose 10 mg/kg, time infinity, route oral; conditions: C57BL/6J, in vivo

For `O=C(O)C[C@H](NC(=O)C1CCN(C(=O)Oc2ccccc2Cl)CC1)C(=O)COc1c(F)c(F)cc(F)c1F`, which Stability [1] is on record?
The Stability was “Unstable”.

And the Stability [2]?
Its Stability is “Unstable”.

Which results are given for `C[C@H](NC(=O)C(=O)Nc1ccccc1C(C)(C)C)C(=O)N[C@@H](CC(=O)O)C(=O)COc1c(F)c(F)cc(F)c1F` [EMRICASAN]?
AUC [3]: 197 nM·h; AUC [4]: 2350 nmol·h/kg; Cmax [5]: 227 nM; pIC50 [6]: 8.22; AUC [7]: 446 nM·h

With `O=C(O)C[C@H](NC(=O)C1CCN(C(=O)OC2CCCC2)CC1)C(=O)COc1c(F)c(F)cc(F)c1F` as the compound, how does the Stability [1] read?
Its Stability is “Stable”.

And the Stability [2]?
Its Stability is “Stable”.

Which AUC [4] does the source give for `O=C(O)C[C@H](NC(=O)C1CCN(C(=O)c2cccs2)CC1)C(=O)COc1c(F)c(F)cc(F)c1F` here?
Its AUC is 804 nmol·h/kg.

For `O=C(O)C[C@H](NC(=O)C1CCN(C(=O)C2CC(F)(F)C2)CC1)C(=O)COc1c(F)c(F)cc(F)c1F`, which AUC [4] is on record?
Its AUC is 334 nmol·h/kg.

For `CC(C)(C)c1ccccc1NC(=O)C(=O)N1CCC[C@@H](C(=O)N[C@@H](CC(=O)O)C(=O)COc2c(F)c(F)cc(F)c2F)C1`, which remaining at 2 h, 100 µM [1] is on record?
The remaining at 2 h, 100 µM was 67%.

What does the source list for `O=C(O)C[C@H](NC(=O)C1CCN(C(=O)C2CCCC2)CC1)C(=O)COc1c(F)c(F)cc(F)c1F`?
AUC [3]: 1710 nM·h; AUC [4]: 2219 nmol·h/kg; Activity [8]: Active; Cmax [5]: 405 nM; Activity [9]: Active; AUC [7]: 852 nM·h; Activity [10]: Active

Which AUC(0-inf) [11] does the source give for `CC(C)(C)c1ccccc1NC(=O)C(=O)N1CCC(C(=O)N[C@@H](CC(=O)O)C(=O)COc2c(F)c(F)cc(F)c2F)CC1` here?
Its AUC(0-inf) is 3.66 µM·h.

And the remaining at 2 h, 100 µM [1]?
Its remaining at 2 h, 100 µM is 93%.

And the Cmax [5]?
Its Cmax is 1640 nM.
